The results in this text go back to US11535621B2, “Heterobicyclic amides as inhibitors of CD38” (Ribon Therapeutics, Inc., priority 2019, dated 2022).

Sequence of Human CD38 (P28907 whole entry): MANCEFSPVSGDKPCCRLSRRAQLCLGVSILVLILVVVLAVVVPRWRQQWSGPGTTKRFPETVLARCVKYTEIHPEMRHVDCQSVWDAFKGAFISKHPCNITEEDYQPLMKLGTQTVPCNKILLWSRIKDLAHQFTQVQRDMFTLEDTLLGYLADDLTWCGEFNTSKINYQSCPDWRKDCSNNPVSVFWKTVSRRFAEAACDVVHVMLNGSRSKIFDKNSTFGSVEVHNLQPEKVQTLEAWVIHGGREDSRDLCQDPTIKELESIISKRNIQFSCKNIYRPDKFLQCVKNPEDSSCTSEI

One test has as its system B16-F10 tumor. Nature of the test: Efficacy study in a B16F10 model (survival). Format: in vivo, C57BL/6 mouse. The following applies: Example 7 300 mg/kg p.o. QD in combination with anti-mPD-L1 10 mg/kg i.p. QW; over vehicle or anti-mPD-L1 treated mice; p value <0.0001. On the procedure:
B16-F10 tumor cells (ATCC, Cat #CRL-6475) were maintained in vitro as a monolayer culture in DMEM medium (Gibco, Cat #11995-040) supplemented with 10% heat inactivated fetal bovine serum (Biological Industries, Cat #04-002-1A), 100 U/mL penicillin and 100 µg/mL streptomycin (Hyclone, Cat #SV30010) at 37° C. in an atmosphere of 5% CO2 in air. The tumor cells were routinely subcultured twice weekly by trypsin-EDTA (Gibco, Cat #25200-072) treatment. The cells growing to a confluency around 70%-80% were harvested and counted for tumor inoculation. The cultured B16-F10 cells were harvested, re-suspended in base medium at a density of 2×10^7 cells/mL with viability>90%. 6-8 weeks of Female C57BL/6 mouse (Shanghai LingChang Biotech Co., LTD) was inoculated subcutaneously at the right flank with 1×10^6 in 0.05 mL base medium for tumor development. Tumors were calipered in two dimensions to monitor growth as the mean volume approached the desired range. Tumor volume (TV) was calculated using the formula: TV=0.5 a×b2 where a and b are the long and short diameters of the tumor.
Mice were assigned into 4 groups with 12 mice per group. […] The tumor sizes were measured three times per week during the treatment. Survival was monitored with tumor volume exceeding 2000 mm3 as endpoint. […]
In the case of `COCCO[C@H]1CC[C@H](NC(=O)c2nc(-n3ccnc3)nc3cc[nH]c23)CC1` [Example 7, 2-(1H-Imidazol-1-yl)-N-((1r,4r)-4-(2-methoxyethoxy)cyclohexyl)-5H-pyrrolo[3,2-d]pyrimidine-4-carboxamide], the “percent survival of B16-F10 tumor bearing mice” value was “significant survival benefit”.

Another test deals with Human CD38 (Homo sapiens (Human), UniProt P28907). Kind of test: CD38 enzyme assay. Format: biochemical. The following applies: 2 nM CD38, NAD+ substrate, absorbance at 405 nm. The gist of the method:
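IC50 values come from fitting % inhibition against compound concentration with a 4-parameter logistic, or a 3-parameter fit with top/bottom fixed at 100/0 or Hill at 1. Inhibition is scaled between DMSO wells and positive-control wells treated with a quinolinone CD38 inhibitor.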
Turning to `COCCO[C@H]1CC[C@H](NC(=O)c2nc(-n3ccnc3)nc3cc[nH]c23)CC1` [Example 7, 2-(1H-Imidazol-1-yl)-N-((1r,4r)-4-(2-methoxyethoxy)cyclohexyl)-5H-pyrrolo[3,2-d]pyrimidine-4-carboxamide], the IC50 (usually the concentration that gives 50% inhibition) lay within 10 to 100 nM.

The molecule `CC1(C#N)CN([C@H]2CC[C@H](NC(=O)c3nc(-n4ccnc4)cc4cn[nH]c34)CC2)C1` [Example 258, N-((1r,4r)-4-(3-cyano-3-methylazetidin-1-yl)cyclohexyl)-5-(1H-imidazol-1-yl)-1H-pyrazolo[3,4-c]pyridine-7-carboxamide] displayed an IC50 of 10 to 100 nM.

In the case of `CC1(C#N)CN([C@H]2CC[C@@H](NC(=O)c3nc(-n4ccnc4)cc4cn[nH]c34)CC2)C1` [Example 259, N-((1s,4s)-4-(3-cyano-3-methylazetidin-1-yl)cyclohexyl)-5-(1H-imidazol-1-yl)-1H-pyrazolo[3,4-c]pyridine-7-carboxamide], the IC50 lay within 100 to 1000 nM.

`CC(C)(O)[C@H]1CC[C@H](NC(=O)c2nc(-n3ccnc3)cc3ccsc23)CC1` [Example 260, N-((1r,4r)-4-(2-hydroxypropan-2-yl)cyclohexyl)-5-(1H-imidazol-1-yl)thieno[2,3-c]pyridine-7-carboxamide] returned an IC50 of under 10 nM.

Molecule `O=C(N[C@H]1CC[C@H](NCC(F)F)CC1)c1nc(-n2ccnc2)cc2ccsc12` [Example 261, N-((1r,4r)-4-((2,2-difluoroethyl)amino)cyclohexyl)-5-(1H-imidazol-1-yl)thieno[2,3-c]pyridine-7-carboxamide] returned an IC50 of under 10 nM.

Molecule `CC(F)(F)CN[C@H]1CC[C@H](NC(=O)c2nc(-n3ccnc3)cc3ccsc23)CC1` [Example 262, N-((1r,4r)-4-((2,2-difluoropropyl)amino)cyclohexyl)-5-(1H-imidazol-1-yl)thieno[2,3-c]pyridine-7-carboxamide] registered an IC50 of 10 to 100 nM.

Molecule `O=C(N[C@H]1CC[C@H](C2(O)CC2)CC1)c1nc(-n2ccnc2)cc2ccsc12` [Example 263, N-((1r,4r)-4-(1-hydroxycyclopropyl)cyclohexyl)-5-(1H-imidazol-1-yl)thieno[2,3-c]pyridine-7-carboxamide] yielded an IC50 of under 10 nM.

The molecule `C[C@@H](O)[C@H]1CC[C@H](NC(=O)c2nc(-n3ccnc3)cc3ccsc23)CC1` [Example 264a, N-((1R,4r)-4-((R)-1-hydroxyethyl)cyclohexyl)-5-(1H-imidazol-1-yl)thieno[2,3-c]pyridine-7-carboxamide] had an IC50 of under 10 nM.

As to `C[C@H](O)[C@H]1CC[C@H](NC(=O)c2nc(-n3ccnc3)cc3ccsc23)CC1` [Example 264b, N-((1S,4r)-4-((S)-1-hydroxyethyl)cyclohexyl)-5-(1H-imidazol-1-yl)thieno[2,3-c]pyridine-7-carboxamide], the IC50 was 10 to 100 nM.

For `CC(C)(O)[C@H]1C[C@H](NC(=O)c2nc(-n3ccnc3)nc3cn[nH]c23)C1` [Example 265, N-((1r,3r)-3-(2-hydroxypropan-2-yl)cyclobutyl)-5-(1H-imidazol-1-yl)-1H-pyrazolo[4,3-d]pyrimidine-7-carboxamide], the IC50 lay within 10 to 100 nM.

In turn, `CC(C)(O)[C@H]1C[C@H](NC(=O)c2nc(-n3ccnc3)cc3cn[nH]c23)C1` [Example 266, N-((1r,3r)-3-(2-hydroxypropan-2-yl)cyclobutyl)-5-(1H-imidazol-1-yl)-1H-pyrazolo[3,4-c]pyridine-7-carboxamide] gave an IC50 of 10 to 100 nM.

As for `COCCO[C@H]1CC[C@H](NC(=O)c2nc(-n3ccnc3)nc3c(C)c[nH]c23)CC1` [Example 268, 2-(1H-imidazol-1-yl)-N-((1r,4r)-4-(2-methoxyethoxy)cyclohexyl)-7-methyl-5H-pyrrolo[3,2-d]pyrimidine-4-carboxamide], the IC50 lay in the range of 10 to 100 nM.

Molecule `N#CC1CN([C@H]2CC[C@H](NC(=O)c3nc(-n4ccnc4)cc4cn[nH]c34)CC2)C1` [Example 269, N-((1r,4r)-4-(3-cyanoazetidin-1-yl)cyclohexyl)-5-(1H-imidazol-1-yl)-1H-pyrazolo[3,4-c]pyridine-7-carboxamide] gave an IC50 of 10 to 100 nM.

Molecule `O=C(N[C@H]1CC[C@H](NCC(F)(F)F)CC1)c1nc(-n2ccnc2)cc2ccsc12` [Example 270, 5-(1H-imidazol-1-yl)-N-((1r,4r)-4-((2,2,2-trifluoroethyl)amino)cyclohexyl)thieno[2,3-c]pyridine-7-carboxamide] yielded an IC50 of 10 to 100 nM.

`O=C(N[C@H]1CC[C@H](CNCC(F)(F)F)CC1)c1nc(-n2ccnc2)nc2cn[nH]c12` [Example 271] returned an IC50 of 10 to 100 nM.

The molecule `CC(C)(N[C@H]1CC[C@H](NC(=O)c2nc(-n3ccnc3)nc3cc[nH]c23)CC1)C(F)(F)F` [Example 272, 2-(1H-imidazol-1-yl)-N-((1r,4r)-4-((1,1,1-trifluoro-2-methylpropan-2-yl)amino)cyclohexyl)-5H-pyrrolo[3,2-d]pyrimidine-4-carboxamide] yielded an IC50 of 10 to 100 nM.

`CC(C)(N[C@H]1CC[C@H](NC(=O)c2nc(-n3ccnc3)nc3cc[nH]c23)CC1)C(F)F` [Example 273, N-((1r,4r)-4-((1,1-difluoro-2-methylpropan-2-yl)amino)cyclohexyl)-2-(1H-imidazol-1-yl)-5H-pyrrolo[3,2-d]pyrimidine-4-carboxamide] had an IC50 of 10 to 100 nM.

The molecule `C[C@]1(NCC(F)(F)F)CC[C@@H](NC(=O)c2nc(-n3ccnc3)nc3cn[nH]c23)CC1` [Example 274, 5-(1H-imidazol-1-yl)-N-((1s,4s)-4-methyl-4-((2,2,2-trifluoroethyl)amino)cyclohexyl)-1H-pyrazolo[4,3-d]pyrimidine-7-carboxamide] came in with an IC50 of 10 to 100 nM.

With `C[C@]1(NCC(F)(F)F)CC[C@H](NC(=O)c2nc(-n3ccnc3)nc3cn[nH]c23)CC1` [Example 275, 5-(1H-imidazol-1-yl)-N-((1r,4r)-4-methyl-4-((2,2,2-trifluoroethyl)amino)cyclohexyl)-1H-pyrazolo[4,3-d]pyrimidine-7-carboxamide], the IC50 lay in the range of 100 to 1000 nM.

`CC(C)(N[C@H]1CC[C@H](NC(=O)c2nc(-n3ccnc3)nc3cn[nH]c23)CC1)C(F)(F)F` [Example 276, 5-(1H-imidazol-1-yl)-N-((1r,4r)-4-((1,1,1-trifluoro-2-methylpropan-2-yl)amino)cyclohexyl)-1H-pyrazolo[4,3-d]pyrimidine-7-carboxamide]: the IC50 fell in the range of 10 to 100 nM.

In turn, `CC(C)(N[C@H]1CC[C@@H](NC(=O)c2nc(-n3ccnc3)nc3cn[nH]c23)CC1)C(F)(F)F` [Example 277, 5-(1H-imidazol-1-yl)-N-((1s,4s)-4-((1,1,1-trifluoro-2-methylpropan-2-yl)amino)cyclohexyl)-1H-pyrazolo[4,3-d]pyrimidine-7-carboxamide] had an IC50 of 100 to 1000 nM.
